Measured values taken from patent US20250243160A1, “INDOLE DERIVATIVES FOR TARGETING AUTOPHAGY” (Automera PTE. LTD, priority 2024, published 2025).

Columns and labels:
[1] = target: Recombinant p62 protein (Homo sapiens, UniProt Q13501); assay: Surface plasmon resonance (SPR) compound binding to p62; settings: 15° C
Procedure: Recombinant p62 protein was buffer exchanged into Biacore SPR running buffer (Cytiva 100671) using the Slide-A-Lyzer Mini Dialysis system 7K MWCO (Thermo Fisher Scientific, Cat no. 69560). The final protein concentration was determined using the Nanodrop One spectrophotometer (Thermo Fisher Scientific, cat no. ND-ONE-W), with calibration for the dialysis buffer.
The prepared protein was diluted in sodium acetate buffer (NaAc, pH 5.5, Cytiva) to concentrations ranging from approximately 0.25-40 μg/mL. Post-immobilization, the protein required approximately 16 hours of equilibration in running buffer supplemented with 1% DMSO at 15° C. to ensure adequate surface equilibration and protein reorganization.
All SPR experiments were conducted at a constant temperature of 15° C. The SPR chip surface was activated using EDC/NHS for a contact time of 6-10 min at a flow rate of 10 μL/min. This was followed by protein immobilization for 2100 seconds and ethanolamine capping for 420 seconds, both at the same flow rate. Immediately after immobilization, the NH2-REEE peptide was analyzed in Single Cycle Kinetics mode (SCK) to verify surface activity, ensuring it binds the sample with the published affinity (˜20 μM by SPR).
For general compound binding studies, experiments were performed at 15° C. using a running buffer composed of 10 mM HEPES, 150 mM NaCl, 1 mM DTT, 0.05% Tween 20, and 1% DMSO at pH 7.4. The test compound was initially prepared at a 20 mM concentration in DMSO and subsequently titrated in 2-fold dilutions. For each assay, 2 μL of the compound was mixed with 198 μL of the running buffer, and the mixture was thoroughly pipetted approximately 15 times for homogenization.
A series of blank injections (0 μM concentration) were included for double referencing, with at least 8 or 16 per plate depending on the format. Typical injection parameters were 120 seconds for association and 180 seconds for dissociation at a flow rate of […]. A four-point solvent correction was prepared with DMSO concentrations ranging from 2% to 0.5% in the buffer. Post each compound injection, the system's needles were washed with 50% DMSO.
Analysis of the SPR data was conducted using the Cytiva Evaluation software. The binding levels at the late time-point of each interaction were corrected for reference, then normalized to percentage bound values to account for variations in immobilization levels, protein molecular weight, and compound molecular weight.
Compound binding studies were carried out according to experimental procedures above and SPR % occupancy was determined and summarized in Table 7.

[2] = target: T1, p62 oligomers (Homo sapiens, UniProt Q13501); assay: p62 oligomerization assay by Western blot in HeLa cells; type: cell-based; settings: 24 hours treatment, relative to vehicle control (DMSO)
T1 construct: endogenous in cells; host or cells: HeLa
T1 sequence (Q13501 whole entry): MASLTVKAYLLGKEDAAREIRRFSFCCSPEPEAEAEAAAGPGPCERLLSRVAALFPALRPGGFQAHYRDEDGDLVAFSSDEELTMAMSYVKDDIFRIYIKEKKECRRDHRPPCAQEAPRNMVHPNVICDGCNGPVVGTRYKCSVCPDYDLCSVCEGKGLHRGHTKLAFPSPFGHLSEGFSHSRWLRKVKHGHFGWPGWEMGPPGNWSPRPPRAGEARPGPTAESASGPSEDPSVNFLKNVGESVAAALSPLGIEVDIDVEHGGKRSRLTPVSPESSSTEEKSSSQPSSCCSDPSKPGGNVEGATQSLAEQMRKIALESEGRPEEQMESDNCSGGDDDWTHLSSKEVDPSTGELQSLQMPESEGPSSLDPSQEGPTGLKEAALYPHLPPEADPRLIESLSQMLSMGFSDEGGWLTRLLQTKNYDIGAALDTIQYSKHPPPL
Procedure: (§1) HeLa cells were seeded in 6-well plates (700,000 cells) and allowed to adhere overnight. Media was replaced one hour before administering either vehicle (DMSO) or test compounds. After 24 hours of treatment, the media was discarded, and cells were rinsed once with ice-cold 1×PBS before detached from plates with ice-cold RIPA Lysis and Extraction Buffer (Thermo Fisher Scientific) which was supplemented with protease and phosphatase inhibitors. The resulting cell suspensions were transferred to pre-chilled microcentrifuge tubes, incubated on ice for 20 min with intermittent mixing and then centrifuged at 12,000 rpm for 20 min at 4° C. The supernatants were then aspirated slowly and transferred into new tubes kept on ice. The protein concentration in the samples was determined using BCA kit (Thermo Fisher Scientific) as per manufacturer's instructions.
(§2) For the p62 oligomerization and LC3 lipidation assays, cell lysates were prepared using RIPA buffer supplemented with 2% SDS and benzonase (Sigma). The lysates were then combined with 4× Laemmli protein sample buffer (Bio-Rad), heated at 70° C. for 10 min and subjected to a brief centrifugation of 10-15 seconds.
(§3) For p62 oligomerization and LC3 lipidation assays, lysates containing 30 μg of protein and for BRD4 and FKBP12(F36V) degradation assays, lysates containing 20 μg of protein, were loaded slowly into the wells of 4-20% gradient Tris-glycine gels (Bio-Rad). The gels were run at 100V until completion and transferred onto PVDF membranes. Membranes were blocked using 5% milk in TBS-Tween (0.1%) buffer at room temperature for 1 hour. The membranes were incubated with primary antibody in 5% milk-TBST with shaking, overnight at 4° C. The primary antibodies used were: p62 (Novus Biologicals 2C11, H00008878-MO1), LC3A/B (Cell Signalling Technology D3U4C, 12741S), FKBP12 (Abcam ab24373), BRD4 (Cell Signalling Technology E2A7X, 13440S), GAPDH (Cell Signalling Technology D4C6R, 97166S), and β-Actin (Proteintech 66009-1-Ig). Following primary antibody incubation, membranes were washed thrice with TBST 10 min before and after incubation with secondary-HRP conjugated antibody in 5% milk-TBST for 1 hour at room temperature. The secondary antibodies used were: Anti-Mouse IgG HRP Conjugate (Promega W4021B) and Anti-Rabbit IgG HRP Conjugate (Promega W4011). For the p62 oligomerization assay, the total protein levels were assessed using Ponceau staining (Thermo Fisher Scientific) of PVDF membrane as per recommendation by manufacturer's guidelines.
(§4) Imaging was acquired using SuperSignal™ West Pico PLUS Chemiluminescent Substrate (Thermo Fisher Scientific) with iBright Invitrogen FL100 imaging system. Band signal intensity, reflective of protein concentrations, were quantified using Invitrogen™ iBright™ Analysis and Image J software.
HeLa cells were treated with compounds for 24 hours to evaluate the effect of these compounds on p62 oligomerisation activity. The resulting changes in levels of p62 oligomers were assessed by Western blotting, as described in experimental procedures. The fold change of p62 oligomer levels induced by compound treatment relative to vehicle control (DMSO) was determined and summarized in Table 8. Specifically, FIGS. 2A-C show Western blot images and their corresponding quantification showing the levels of high molecular weight (100-200 kDa) p62 oligomers by 24 hours compound treatments at listed concentrations, relative to vehicle control (DMSO) in HeLa cells. Protein loading consistencies was assessed by Ponceau staining (not shown).

[3] = tested on: LC3 protein; assay: LC3 lipidation (LC3-II/LC3-I) assay by Western blot in HeLa cells; type: cell-based; set-up: key: ++: >2-fold change in LC3-II/LC3-I relative to DMSO control; +: <2-fold change in LC3-II/LC3-I relative to DMSO control; −: no change in LC3-II/LC3-I relative to DMSO control; settings: 24 hours treatment, relative to vehicle control (DMSO)
Procedure: as §1, §2, §3, §4
HeLa cells were treated with compounds for 24 hours to evaluate the effect of these compounds on LC3-II/LC3-I levels, a measure of autophagy activation. The changes in levels of LC3-I, LC3-II and […] (loading control) were assessed by Western blotting, as described in experimental procedures. The fold increase of LC3-II/LC3-I levels induced by compound treatment relative to vehicle control (DMSO) was determined and summarized in Table 9. Specifically, FIGS. 3A-C show Western blot images and their corresponding quantification showing the lipidation levels of LC3 protein (LC3-II/LC3-I) by 24 hours compound treatments at listed concentrations, relative to vehicle control (DMSO) in HeLa cells.

Chain of Recombinant p62 protein (Q13501 whole entry, species assumed): as the sequence (Q13501 whole entry) above

| Compound | receptor occupancy at 100 µM [1] | p62 oligomerization (fold change of p62 oligomer levels) [2] | LC3 lipidation (fold increase of LC3-II/LC3-I levels) [3] |
| --- | --- | --- | --- |
| OCCNCc1cccc2c1ccn2Cc1c[nH]cn1 [Compound 21, 2-(((1-((1H-imidazol-4-yl)methyl)-1H-indol-4-yl)methyl)amino)ethan-1-ol] | 30 to 70% | + (<2-fold change relative to DMSO control) | − |
| OCCNCc1cccc2c1ccn2CCC1CCNCC1 [Compound 26] | 30 to 70% | ++ (>2-fold change relative to DMSO control) | + (<2-fold change in LC3-II/LC3-I relative to DMSO control) |
| Cc1cn(Cc2ccccc2)c2cccc(CNCCO)c12 [Compound 37, 2-(((1-benzyl-3-methyl-1H-indol-4-yl)methyl)amino)ethan-1-ol] | 30 to 70% | ++ (>2-fold change relative to DMSO control) | + (<2-fold change in LC3-II/LC3-I relative to DMSO control) |
| Cc1cn(CC2CCOCC2)c2cccc(CNCCO)c12 [Compound 49] | 30 to 70% | + (<2-fold change relative to DMSO control) | − |

Second part, led by results:

| receptor occupancy at 100 µM [1] | Compound | p62 oligomerization (fold change of p62 oligomer levels) [2] | LC3 lipidation (fold increase of LC3-II/LC3-I levels) [3] |
| --- | --- | --- | --- |
| > 70% | OCCNCc1cccc2c1ccn2Cc1ccc(F)cc1 [Compound 10] | ++ (>2-fold change relative to DMSO control) | + (<2-fold change in LC3-II/LC3-I relative to DMSO control) |
| > 70% | OCCNCc1cccc2c1ccn2Cc1ccc(Cl)cc1 [Compound 11] | ++ (>2-fold change relative to DMSO control) | ++ (>2-fold change in LC3-II/LC3-I relative to DMSO control) |
| 30 to 70% | OCCNCc1cccc2c1ccn2Cc1cccc(Cl)c1 [Compound 13] | ++ (>2-fold change relative to DMSO control) | + (<2-fold change in LC3-II/LC3-I relative to DMSO control) |
| > 70% | CC(C)(C)OC(=O)N1Cc2ccc(Cn3ccc4c(CNCCO)cccc43)cc2C1 [Compound 27] | ++ (>2-fold change relative to DMSO control) | + (<2-fold change in LC3-II/LC3-I relative to DMSO control) |
| > 70% | OCCNCc1cc(F)cc2c1ccn2Cc1ccccc1 [Compound 31] | ++ (>2-fold change relative to DMSO control) | + (<2-fold change in LC3-II/LC3-I relative to DMSO control) |
| > 70% | OCCNCc1ccc(Cl)c2c1ccn2Cc1ccccc1 [Compound 35] | ++ (>2-fold change relative to DMSO control) | ++ (>2-fold change in LC3-II/LC3-I relative to DMSO control) |
| 30 to 70% | Cc1cn(Cc2ccc(F)cc2)c2cccc(CNCCO)c12 [Compound 48] | ++ (>2-fold change relative to DMSO control) | ++ (>2-fold change in LC3-II/LC3-I relative to DMSO control) |
